# ChEMBL document CHEMBL4190327, “Substituted methoxybenzyl-sulfonyl-1H-benzo[d]imidazoles evaluated as effective H+/K+-ATPase inhibitors and anti-ulcer therapeutics” (Eur J Med Chem, 2017)
# Assays:
# [1] = test system: Erythrocyte; assay: Anti-inflammatory activity in human RBC assessed as membrane stabilization relative to control; type: functional; design: concentration or dose not given beside the values
# [2] = organism: Capra hircus; assay: Inhibition of hydrogen potassium ATPase in goat stomach mucosal membrane assessed as decrease in inorganic phosphate production using ATP as substrate after 10 to 15 mins by spectrophotometric analysis relative to omeprazole; type: cell membranes; design: concentration or dose not given beside the values
# [3] = test system: Erythrocyte; assay: Anti-inflammatory activity in human RBC assessed as membrane stabilization; type: functional, cell-based
# [4] = Inhibition of hydrogen potassium ATPase in goat stomach mucosal membrane assessed as decrease in inorganic phosphate production using ATP as substrate after 10 to 15 mins by spectrophotometric analysis; type: cell membranes, Capra hircus
structure (smiles),measurement,setting,value
COc1cc(CS(=O)(=O)c2nc3ccccc3[nH]2)ccc1OCc1nccc(OC)c1OC,Activity,[1],91.12%
same,inhibition,[2],92%
same,IC50,[3],212 nM
same,IC50,[4],228 nM
same,Ki,[4],25 to 1240 nM
COCCCOc1ccnc(COc2ccc(CS(=O)(=O)c3nc4cc(OC(F)F)ccc4[nH]3)cc2OC)c1C,Activity,[1],96.42%
same,inhibition,[2],96.3%
same,IC50,[3],142 nM
same,IC50,[4],124 nM
same,Ki,[4],25 to 1240 nM
COc1ccc2[nH]c(S(=O)(=O)Cc3ccc(OCc4ncc(C)c(OC)c4C)c(OC)c3)nc2c1,Activity,[1],76.23%
same,inhibition,[2],76.3%
same,IC50,[3],1210 nM
same,IC50,[4],1150 nM
same,Ki,[4],25 to 1240 nM
COc1ccc2[nH]c([S+]([O-])Cc3ncc(C)c(OC)c3C)nc2c1 (centres undefined) [OMEPRAZOLE],inhibition,[2],82.1%
same,IC50,[4],980 to 1010 nM
COc1ccc2[nH]c(S(=O)(=O)Cc3ccc(OCc4nccc(OCC(F)(F)F)c4C)c(OC)c3)nc2c1,Activity,[1],71.58%
same,inhibition,[2],72%
same,IC50,[3],1760 nM
same,IC50,[4],1460 nM
same,Ki,[4],25 to 1240 nM
COc1cc(CS(=O)(=O)c2nc3ccccc3[nH]2)ccc1OCc1nccc(OCC(F)(F)F)c1C,Activity,[1],74.21%
same,inhibition,[2],74.9%
same,IC50,[3],1310 nM
same,IC50,[4],1290 nM
same,Ki,[4],25 to 1240 nM
COc1cc(CS(=O)(=O)c2nc3cc(OC(F)F)ccc3[nH]2)ccc1OCc1nccc(OC)c1OC,Activity,[1],94.11%
same,inhibition,[2],94.4%
same,IC50,[3],186 nM
same,IC50,[4],198 nM
same,Ki,[4],25 to 1240 nM
COCCCOc1ccnc(COc2ccc(CS(=O)(=O)c3nc4ccccc4[nH]3)cc2OC)c1C,Activity,[1],88.45%
same,inhibition,[2],81%
same,IC50,[3],355 nM
same,IC50,[4],355 nM
same,Ki,[4],25 to 1240 nM
COc1cc(CS(=O)(=O)c2nc3cc(OC(F)F)ccc3[nH]2)ccc1OCc1nccc(OCC(F)(F)F)c1C,Activity,[1],70.28%
same,inhibition,[2],70.6%
same,IC50,[3],1880 nM
same,IC50,[4],1660 nM
same,Ki,[4],25 to 1240 nM
COc1cc(CS(=O)(=O)c2nc3cc(OC(F)F)ccc3[nH]2)ccc1OCc1ncc(C)c(OC)c1C,Activity,[1],73.56%
same,inhibition,[2],73.2%
same,IC50,[3],1420 nM
same,IC50,[4],1360 nM
same,Ki,[4],25 to 1240 nM
O=C(O)Cc1ccccc1Nc1c(Cl)cccc1Cl [DICLOFENAC],Activity,[1],82.24%
same,IC50,[3],942 nM
COc1cc(CS(=O)(=O)c2nc3ccccc3[nH]2)ccc1OCc1ncc(C)c(OC)c1C,Activity,[1],70.41%
same,inhibition,[2],70.5%
same,IC50,[3],1820 nM
same,IC50,[4],1680 nM
same,Ki,[4],25 to 1240 nM
COc1ccc2[nH]c(S(=O)(=O)Cc3ccc(OCc4nccc(OC)c4OC)c(OC)c3)nc2c1,Activity,[1],78.42%
same,inhibition,[2],78.2%
same,IC50,[3],898 nM
same,IC50,[4],918 nM
same,Ki,[4],25 to 1240 nM
COCCCOc1ccnc(COc2ccc(CS(=O)(=O)c3nc4cc(OC)ccc4[nH]3)cc2OC)c1C,Activity,[1],79.41%
same,inhibition,[2],80.2%
same,IC50,[3],817 nM
same,IC50,[4],814 nM
same,Ki,[4],25 to 1240 nM
